The record followed here is patent US20160362416A1, “ANTIVIRAL COMPOUNDS” (Gilead Sciences, Inc., priority 2012, published 2016).

The test system of data set [1] is NS5A chimeric genotype 1b Con1 replicon with genotype 4a ED43 strain NS5A gene. Nature of the data set: HCV genotype 4a NS5A chimeric replicon assay. To be noted: Hepatitis C virus, 72 h, read-out: 4a (s) (nM). Format: cell-based. (In general: Replicon systems follow genome replication, usually without infectious particles.)
Data set [2] relates to Y93H in genotype 3a NS5A replicon. Nature of the data set: Resistance mutant replicon assay, genotype 3a NS5A Y93H. Format: cell-based, HCV. Conditions: Hepatitis C virus, read-out: 3a Y93H (nM). In short, it runs like this:
(§1)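 Renilla luciferase activity in lysed cells after 72 h with 3-fold serially diluted compound gave EC50 by non-linear regression. Cells were Huh-7-derived cured-51, transiently transfected with mutant replicon RNA (1a or 1b Pi-RLuc backbone; 3a NS5A in 1b chimera) made by site-directed mutagenesis.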

Data set [3] has as its system stable HCV 1b RLuc replicon cells (genotype 1b Con1 replicon). Nature of the data set: HCV genotype 1b RLuc replicon reporter assay. It counts as cell-based. To be noted: Hepatitis C virus; stable genotype 1b Con1 RLuc replicon cells, 72 hours. The procedure, abridged: (§2)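 Stable 1b Con1 RLuc replicon cells, or Huh-Lunet cells transiently transfected with chimeric replicons (Con1 backbone carrying 3a S52 or 4a ED43 NS5A; JFH-1 backbone carrying 2b MD2b-1 NS5A, M31), treated with 3-fold dilutions for 72 h. Renilla luciferase read after lysis; EC50 by non-linear regression.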

In data set [4] the test system is Y93N in genotype 1a NS5A replicon. Briefly: Resistance mutant replicon assay, genotype 1a NS5A Y93N. Conditions: Hepatitis C virus, read-out: 1a Y93N (nM). Format: cell-based, HCV. In short, it runs like this: as §1
Data set [5] in a line: IV and PO single dose pharmacokinetic studies in SD rats. Format: in vivo. Conditions: Sprague-Dawley, rat, plasma, male SD rats, IV infusion 1 mg/kg, oral gavage 2 mg/kg, read-out: Rat % F. Here is the method: IV and PO Single Dose Pharmacokinetic Studies in SD Rats: The pharmacokinetics of selected compounds was characterized in male Sprague-Dawley (SD) rats (250-300 g). In this study, two groups of naïve purebred SD rats (N=3 per group, fasted over night) received the selected compound either as an intravenous (IV) infusion (1 mg/kg over 30 minutes) via the jugular vein or by oral gavage (2 mg/kg). The intravenous (IV) dosing vehicle was 5% ethanol, 35% polyethylene glycol 400 (PEG 400) and 60% water pH 2.0. The oral dosing vehicle was 5% ethanol, 55% PEG 400 and 40% citrate buffer pH 2.2.
Serial blood samples (approximately 0.3 mL each) were collected from jugular vein or other suitable vein at specified time points. For the IV infusion group, the blood samples were collected predose and at 0.25, 0.48, 0.58, 0.75, 1.5, 3, 6, 8, 12 and 24 hours after the start of infusion. For the oral group, the blood samples were collected predose and at 0.25, 0.50, 1, 2, 4, 6, 8, 12 and 24 hours after dosing. The blood samples were collected into Vacutainer™ tubes containing EDTA-K3 as the anti-coagulant and were centrifuged at approximately 4° C. to obtain plasma. The plasma samples were stored at −20° C. until analysis by LC/MS/MS.
A bioanalytical method utilizing high performance liquid chromatography coupled to tandem mass spectrometry (LC/MS/MS) was developed for analysis of the selected compound in rat plasma. Detection was performed using selected reaction monitoring (SRM); Ions representing the precursor (M+H)^+ species was selected in quadrupole 1 (Q1) and collided with argon gas in the collision cell (Q2) to generate specific product ion, which was subsequently monitored by quadrupole 3 (Q3). Standard curve and quality control samples were prepared in male rat plasma and processed in the same way as the test samples to generate quantitative data.
Pharmacokinetic parameters were generated using non-compartmental pharmacokinetic analysis (Phoenix WinNonlin, version 6.3). Values below the lower limit of quantification (LLOQ) were assigned a value of zero if predose and treated as missing thereafter. Area under the curve (AUC) was calculated using the linear trapezoidal rule. The oral bioavailability (% F) was determined by comparison of the area under the curve (AUC) of the compound and/or a metabolite generated in plasma following oral administration to that generated following intravenous administration.

For data set [6], the system named is stable HCV 1a RLuc replicon cells (genotype 1a H77 replicon). Briefly: HCV genotype 1a RLuc replicon reporter assay. Conditions: Hepatitis C virus; stable genotype 1a H77 RLuc replicon cells, 72 hours. It counts as cell-based.
Data set [7] relates to Q30R in genotype 1a NS5A replicon. Nature of the data set: Resistance mutant replicon assay, genotype 1a NS5A Q30R. Format: cell-based, HCV. Conditions: Hepatitis C virus, read-out: 1a Q30R (nM). As for the experimental part: (§3) Evaluation of cell-based anti-HCV activity: Antiviral potency (EC50) was determined using a Renilla luciferase (RLuc)-based HCV replicon reporter assay. To perform the assay for genotype 1 and 2a JFH-1, stable HCV 1a RLuc replicon cells (harboring a dicistronic genotype 1a H77 replicon that encodes a RLuc reporter), stable HCV lb RLuc replicon cells (harboring a dicistronic genotype 1b Conl replicon that encodes a RLuc reporter), or stable HCV 2a JFH-1 Rluc replicon cells (harboring a dicistronic genotype 2a JFH-1 replicon that encodes a RLuc reporter; with L31 present in NS5A) were dispensed into 384-well plates for EC50 assays. To perform the assay for genotype 2a (with M31 present in NS5A) or 2b, NS5A chimeric genotype 2a JFH-1 replicons that encodes a RLuc-Neo reporter and either genotype 2a J6 strain NS5A gene or genotype 2b MD2b-1 strain NS5A gene (both with M31 present) respectively, were either transiently transfected (t) into Huh-Lunet cells or were established as stably replicating replicon cells (s) is provided. Either cells were dispensed into 384-well plates for EC50 assays. To perform the assay for genotype 3 and 4, NS5A chimeric genotype 1b Conl replicons that encodes a Pi-RLuc reporter and either genotype 3a S52 strain NS5A gene or genotype 4a ED43 strain NS5A gene respectively, were transiently transfected (t) into Huh-Lunet cells, which were subsequently dispensed into 384-well plates. Compounds were dissolved in DMSO at a concentration of 10 mM and diluted in DMSO either manually or using an automated pipeting instrument. Serially 3-fold diluted compounds were either manually mixed with cell culture media and added to the seeded cells or directly added to the cells using an automated instrument. DMSO was used as a negative (solvent; no inhibition) control, and the protease inhibitor ITMN-191 was included at a concentration >100×EC50 as a positive control. 72 hours later, cells were lysed and Renilla luciferase activity quantified as recommended by the manufacturer (Promega-Madison, Wis.). Non-linear regression was performed to calculate EC50 values.
(§4) To determine the antiviral potency (EC50) against resistance mutants, resistance mutations, including M28T, Q30R, Q30H, Q30E, L31M, Y93C, Y93H, and Y93N in genotype 1a NS5A, Y93H and L31V/Y93H in genotype 1b NS5A, and Y93H for in genotype 3a NS5A, were introduced individually into either 1a Pi-Rluc or 1b Pi-Rluc replicons by site directed mutagenesis. Replicon RNA of each resistant mutant was transiently transfected into Huh-7-derived cured-51 cells and antiviral potency was determined on these transfected cells as described above.

In data set [8] the test system is Y93H in genotype 1a NS5A replicon. Nature of the data set: Resistance mutant replicon assay, genotype 1a NS5A Y93H. Format: cell-based, HCV. To be noted: Hepatitis C virus, read-out: 1a Y93H (nM). In short, it runs like this:
as §1

Data set [9] relates to Q30E in genotype 1a NS5A replicon. Briefly: Resistance mutant replicon assay, genotype 1a NS5A Q30E. It counts as cell-based, HCV. Conditions: Hepatitis C virus, read-out: 1a Q30E (nM). As for the experimental part: as §3, §4
In data set [10] the test system is L31V/Y93H in genotype 1b NS5A replicon. Briefly: Resistance mutant replicon assay, genotype 1b NS5A L31V/Y93H. It counts as cell-based, HCV. Conditions: Hepatitis C virus, read-out: 1b L31V/Y93H (nM). Here is the method: as §3, §4
Data set [11] has as its system NS5A chimeric genotype 2a JFH-1 replicon with genotype 2a J6 strain NS5A gene (M31). Briefly: HCV genotype 2a J6 NS5A chimeric replicon assay, transient (t). It counts as cell-based. Conditions: Hepatitis C virus, 72 h, read-out: 2a J6 (t) (nM).
Data set [12] relates to NS5A chimeric genotype 1b Con1 replicon with genotype 3a S52 strain NS5A gene. Briefly: HCV genotype 3a NS5A chimeric replicon assay. It counts as cell-based. To be noted: Hepatitis C virus, 72 h, read-out: 3a (nM). The procedure, abridged:
as §2

Data set [13] deals with stable HCV 2a JFH-1 Rluc replicon cells (L31 present in NS5A). Nature of the data set: HCV genotype 2a JFH-1 RLuc replicon reporter assay. It counts as cell-based. To be noted: Hepatitis C virus, 72 h, read-out: 2a JFH (nM).
The test system of data set [14] is NS5A chimeric genotype 2a JFH-1 replicon with genotype 2b MD2b-1 strain NS5A gene (M31). Briefly: HCV genotype 2b NS5A chimeric replicon assay, transient (t). It counts as cell-based. Conditions: Hepatitis C virus, 72 h, read-out: 2b (t) (nM). The procedure, abridged:
as §2

Data set [15] shares this test system. Briefly: HCV genotype 2b NS5A chimeric replicon assay, stable (s). Format: cell-based. To be noted: Hepatitis C virus, 72 h, read-out: 2b (s) (nM).

Take `CC[C@H](C)[C@H](NC(=O)OC)C(=O)N1[C@H](c2ncc(-c3ccc4c(c3)COc3cc5c(ccc6nc([C@@H]7CC[C@H](C)N7C(=O)[C@@H](NC(=O)OC)C7CCOCC7)[nH]c65)cc3-4)[nH]2)C[C@@H]2CCC[C@@H]21` [Comp 9, reference compound]: the EC50 came to 40.9 nM in data set [1]; 40.9 nM in data set [2]; 34 pM in data set [3]; 10.6 nM in data set [4]; 28 pM in [6]; 0.26 nM in data set [7]. Moreover, the EC50 in data set [8] came out at 3.5 nM. Besides, the bioavailability in [5] turned out to be 0.571%.

On to `CC[C@H]1C[C@@H](c2nc3ccc4cc5c(cc4c3[nH]2)OCc2cc(-c3cnc([C@@H]4CC[C@H](C)N4C(=O)[C@@H](NC(=O)OC)C(C)C)[nH]3)ccc2-5)N(C(=O)[C@@H](NC(=O)OC)C2CCOCC2)C1` [Comp 1, reference compound], for which the EC50 in data set [2] stood at 8.07 nM; in [3], 27 pM; in data set [4], 2.05 nM; in data set [9], 0.319 nM; in [10] it was 0.971 nM; in data set [6], 18 pM. The bioavailability in [5] stood at 9.9%.

As to `COC(=O)N[C@H](C(=O)N1[C@@H](C)CC[C@H]1c1ncc(-c2ccc3c(c2)COc2cc4c(ccc5nc([C@@H]6C[C@@H]7CCC[C@@H]7N6C(=O)[C@@H](NC(=O)OC)C6CCOCC6)[nH]c54)cc2-3)[nH]1)C(C)C` [Comp 10, reference compound], the EC50 in [1] stood at 21.8 nM; in data set [2] it was 21.8 nM; in [11], 0.024 nM; in data set [3], 24 pM; in [4], 3.74 nM; in data set [9] it was 0.716 nM. Besides, the results for the EC50 in data set [10], in data set [6] and in data set [7] were 0.024 nM, 15 pM and 0.123 nM, respectively.

Regarding `CC[C@H]1CC[C@@H](c2nc3ccc4cc5c(cc4c3[nH]2)OCc2cc(-c3cnc([C@@H]4CC[C@H](C)N4C(=O)[C@@H](NC(=O)OC)C(C)C)[nH]3)ccc2-5)N1C(=O)[C@@H](NC(=O)OC)C1C[C@@H](C)O[C@H](C)C1` (stereo partly drawn) [Example AC, Methyl {(1S)-1-[(2R,6R)-2,6-dimethyltetrahydro-2H-pyran-4-yl]-2-[(2S,5S)-2-ethyl-5-(9-{2-[(2S,5S)-1-{(2S)-2-[(methoxycarbonyl)amino]-3-methylbutanoyl}-5-methylpyrrolidin-2-yl]-1H-imidazol-5-yl}-1,11-dihydroisochromeno[4′,3′:6,7]naphtho[1,2-d]imidazol-2-yl)pyrrolidin-1-yl]-2-oxoethyl}carbamate], the EC50 stood at 0.005 nM in [1]; 14.5 nM in data set [2]; 0.003 nM in data set [11]; 30 pM in data set [3]; 0.019 nM in data set [12]; 1.63 nM in data set [4]. The EC50 in data set [13] came to 0.016 nM; in [9], 0.312 nM; in data set [10] it was 1.33 nM; in [6], 25 pM; in data set [8] it was 0.832 nM; in [14], 0.02 nM.

For the compound `COC(=O)N[C@H](C(=O)N1[C@@H](C)CC[C@H]1c1ncc(-c2ccc3c(c2)COc2cc4c(ccc5nc([C@@H]6CC[C@H](C)N6C(=O)[C@@H](NC(=O)OC)C6CCOCC6)[nH]c54)cc2-3)[nH]1)C1CCOCC1` [Comp 6, reference compound], the EC50 was 0.014 nM in data set [1]; 0.252 nM in data set [2]; 0.012 nM in data set [11]; 51 pM in [3]; 0.075 nM in data set [12]; 0.012 nM in data set [13]. The EC50 was 0.101 nM in [9]; 24 pM in data set [6]; 0.042 nM in data set [7]; 0.038 nM in [15]; 0.442 nM in [8]; 0.092 nM in data set [14].
